The text below walks through data of patent US4232010A, “Calcium-antagonistic composition” (Kanebo, Ltd., priority 1978, dated 1980).

Read-outs that look alike come from different tables or passages of the source. Bounds are passed on as bounds.

Data set [1] concerns isolated guinea-pig heart. In words: Action on coronary blood flow, isolated guinea-pig heart (Langendorff). To be noted: Cavia porcellus, dosage 10 γ/heart, read-out: Maximum increase in coronary flow (Δ% ± standard error). As for the experimental part: Male guinea-pigs with body weights from 400 to 500 g were slaughtered and promptly thoractomized. After the ascending aorta was cannulated, the heart was enucleated. By the method of Langendorff, this isolated heart was perfused with the Krebs-Henseleit fluid oxygenated with a gaseous mixture of 95% O2 and 5% CO2 at a fluid temperature of 34°±1° C. and perfusion pressure of 60 cm H2 O, and the test compound was infused. The coronary flows before and after infusion were measured and the percent gain in coronary flow was obtained. The coronary flow was measured with a square-wave electromagnetic flowmeter (Nihon Kohden, MF-26) with an extracorporeal probe (Nihon Kohden, FE) set at the top of the cannula and recorded with a multipurpose polygraph (Nihon Kohden, RM-85). The test compound was dissolved in propylene glycol to a concentration of 100 γ/ml and 0.1 ml of the solution was infused at the rate of 0.1 ml/min.

Data set [2] relates to coronary flow and blood pressure. In words: Action on coronary flow and blood pressure (intravenous administration into dogs). The conditions noted are these: 0.2 mg/kg. In kind it is in vivo, dog. As for the experimental part: Dogs weighing 11 to 24 kg were anaesthetized with pentobarbital sodium (35 mg/kg, intraperitoneal) and, under supportive respiration, a right thoractomy was performed by removing the fourth rib. The pericardial membrane was then incised to expose the heart. The coronary sinus flow was measured with a cannula inserted from the right auricle into the coronary sinus and connected to an electromagnetic flowmeter (Nihon Kohden K.K., MF-26.) The outflowing blood was returned to the femoral vein through a rubber tubing.
The blood pressure was measured with a pressure transducer (Nihon Kohden K.K., MPU-0.5) connected to the cannula inserted into the femoral artery, and was recorded with a multipurpose polygraph (Nihon Kohden K.K., RM-85) which also recorded the coronary blood flow. The heart rate was calculated based on the electrocardiogram. The test compound was dissolved in dog serum and injected into the femoral vein.

Data set [3] shares this test system. In words: Activity on intraduodenal administration to dogs (coronary flow, blood pressure, heart rate). In kind it is in vivo, dog. To be noted: 10 mg/kg. The protocol:
Dogs weighing 12 to 22 kg were anaesthetized with pentobarbital sodium [35 mg/kg, i.p.] and under supportive respiration, a left thoractomy was performed at the fourth interspace. The pericardium was incised to expose the heart and the blood flow through circumflex branch of left coronary was measured with an electromagnetic flowmeter (Nihon Kohden K.K., MF-26). The blood pressure was measured from a cannula inserted into the carotid artery through a pressure transducer (Nihon Kohden K.K., MPU-0.5), while the heart rate was calculated based on the electrocardiogram. The abdomen was sutured with the end of the cannula left out of the body and the test compound was administered. The test compound was diluted with 0.5% CMC to a concentraion of 10 mg/ml and administered at a dose of 10 mg/kg.

A short description of data set [4]: Acute toxicity test in mice, intraperitoneal. The conditions noted are these: mouse, in vivo, ip, male ddY mice, deaths within 72 hours. The protocol: An acute toxicity test was performed in male ddY mice (in groups of 5 animals, body weights 20±2 g) by the intraperitoneal administration of a test compound.
A suspension of each compound in 0.5% carboxymethylcellulose was administered, the deaths within 72 hours were counted and the LD50 values were calculated by the method of Weil.

The target in data set [5] is T1, taenia coli (Cavia porcellus).
T1 construct: a test was conducted using isolated taenia colis about 2 cm long; from tissue; host or cells: isolated guinea-pig taenia coli
Nature of the data set: Calcium antagonist activity (pA2), isolated guinea-pig taenia coli. As for the experimental part: (§1) Male guinea-pigs weighing 350-450 g each were slaughtered and a test was conducted using isolated taenia colis about 2 cm long. A taenia coli was suspended in a Magnus chamber (Locke solution, 25°±2° C., aerated) and the contractile response of the taenia coli was recodered through an isotonic transducer. To the decalcified taenia coli was cumulatively added 0.1 to 100 mM of calcium in the presence of 6×10^-3 g/ml of K^+ to obtain a dose-contraction curve for calcium and, after the taenia coli was decalcified again, a dose-contraction curve for calcium was determined in the presence of the test compound. Based on the difference between the responses, the pA2 of calcium antagonist activity of the test compound was computed.

The target in another data set is T2, taenia coli (Cavia porcellus, UniProt O35505).
T2 construct: a test was conducted using isolated taenia colis about 2 cm long; from tissue; host or cells: isolated guinea-pig taenia coli
The description is as above. The conditions noted are these: 5 cases, read-out: pA2 (mean ± standard error) of calcium antagonist activity (converted). The protocol:
as §1

[6] abbreviates: time after administration 5 (unit not given).
The mark [7] stands for this setting: time after administration 30 (unit not given).
[8] abbreviates: time after administration 60 (unit not given).
[9] abbreviates: time after administration 120 (unit not given).

T2 sequence (O35505 whole entry): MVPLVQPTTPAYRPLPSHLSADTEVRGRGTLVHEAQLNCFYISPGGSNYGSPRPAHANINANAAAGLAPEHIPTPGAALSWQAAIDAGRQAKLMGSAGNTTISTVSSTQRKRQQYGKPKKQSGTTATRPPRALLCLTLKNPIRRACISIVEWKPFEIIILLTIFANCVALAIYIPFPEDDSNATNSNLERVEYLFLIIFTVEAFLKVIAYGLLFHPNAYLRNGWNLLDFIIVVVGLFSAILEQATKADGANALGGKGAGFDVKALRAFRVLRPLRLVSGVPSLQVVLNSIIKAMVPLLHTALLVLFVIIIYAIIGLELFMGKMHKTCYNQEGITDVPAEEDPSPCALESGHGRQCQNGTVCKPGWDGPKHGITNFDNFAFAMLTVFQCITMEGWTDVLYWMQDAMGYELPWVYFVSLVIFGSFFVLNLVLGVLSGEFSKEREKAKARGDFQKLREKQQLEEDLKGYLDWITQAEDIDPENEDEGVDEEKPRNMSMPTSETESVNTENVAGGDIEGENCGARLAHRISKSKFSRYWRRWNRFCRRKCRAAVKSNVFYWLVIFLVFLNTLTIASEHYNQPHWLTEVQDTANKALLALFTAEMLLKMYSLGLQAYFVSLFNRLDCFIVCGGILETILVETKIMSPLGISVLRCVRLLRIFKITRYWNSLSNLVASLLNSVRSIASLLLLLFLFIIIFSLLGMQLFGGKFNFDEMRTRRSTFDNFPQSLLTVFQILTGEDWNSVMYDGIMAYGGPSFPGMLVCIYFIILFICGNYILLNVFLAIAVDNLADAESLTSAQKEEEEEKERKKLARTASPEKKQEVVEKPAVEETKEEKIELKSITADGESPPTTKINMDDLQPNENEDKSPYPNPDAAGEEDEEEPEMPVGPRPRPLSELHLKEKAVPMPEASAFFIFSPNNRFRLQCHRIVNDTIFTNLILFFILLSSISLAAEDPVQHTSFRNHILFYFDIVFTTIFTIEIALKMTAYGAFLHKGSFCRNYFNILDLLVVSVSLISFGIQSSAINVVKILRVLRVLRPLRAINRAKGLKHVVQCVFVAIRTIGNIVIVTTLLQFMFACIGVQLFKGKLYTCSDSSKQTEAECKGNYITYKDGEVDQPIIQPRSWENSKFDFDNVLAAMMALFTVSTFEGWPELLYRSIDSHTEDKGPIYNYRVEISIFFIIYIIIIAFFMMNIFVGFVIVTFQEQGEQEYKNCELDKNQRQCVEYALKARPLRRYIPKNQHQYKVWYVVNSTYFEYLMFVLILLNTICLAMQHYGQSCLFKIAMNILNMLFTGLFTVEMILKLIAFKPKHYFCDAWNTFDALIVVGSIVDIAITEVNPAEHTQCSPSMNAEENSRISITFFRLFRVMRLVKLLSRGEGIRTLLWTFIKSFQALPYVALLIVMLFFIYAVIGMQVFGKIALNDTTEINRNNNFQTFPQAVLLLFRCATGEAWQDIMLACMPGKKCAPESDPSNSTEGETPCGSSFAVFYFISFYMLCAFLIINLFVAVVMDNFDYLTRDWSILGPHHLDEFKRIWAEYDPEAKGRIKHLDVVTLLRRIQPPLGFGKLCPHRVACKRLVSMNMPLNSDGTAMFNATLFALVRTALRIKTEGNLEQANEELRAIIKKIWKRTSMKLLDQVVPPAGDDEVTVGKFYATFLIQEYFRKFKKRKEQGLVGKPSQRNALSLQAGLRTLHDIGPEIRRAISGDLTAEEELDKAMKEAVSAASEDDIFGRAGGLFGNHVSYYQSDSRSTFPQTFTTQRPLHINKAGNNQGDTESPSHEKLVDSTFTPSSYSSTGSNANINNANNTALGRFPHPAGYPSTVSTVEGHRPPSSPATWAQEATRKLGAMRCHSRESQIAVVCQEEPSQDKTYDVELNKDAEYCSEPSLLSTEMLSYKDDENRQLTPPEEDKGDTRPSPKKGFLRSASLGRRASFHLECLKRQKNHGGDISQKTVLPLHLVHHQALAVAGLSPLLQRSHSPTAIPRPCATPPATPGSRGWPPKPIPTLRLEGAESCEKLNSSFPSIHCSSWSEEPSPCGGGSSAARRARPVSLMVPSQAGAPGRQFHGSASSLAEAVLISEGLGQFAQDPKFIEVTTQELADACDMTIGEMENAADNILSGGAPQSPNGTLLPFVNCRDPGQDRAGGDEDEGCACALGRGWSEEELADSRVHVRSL
T1 sequence (O35505 whole entry): as above

Consider `COc1ccc([C@@H]2Sc3ccccc3N(CCN(C)C)C(=O)[C@@H]2OC(C)=O)cc1` [Diltiazem, reference compound], for which the activation at 10 µg/heart in data set [1] turned out to be 66 ± 7.1%. Also, the “Change in heart rate (Δbeats/min. ± standard error)” value in data set [2] was -20.5 ± 7.8 Δbeats/min; in data set [3] (setting [6]), 1.6 ± 2.0 Δbeats/min; in data set [3] (setting [7]) it was -13.2 ± 1.2 Δbeats/min; in data set [3] (setting [9]) it was -23.6 ± 4.0 Δbeats/min. The “Increase in coronary senus outflow (Δ% ± standard error)” value in data set [2] is 67.9 ± 8.5 Δ%. In addition, the “Mean change in blood pressure (ΔmmHg ± standard error)” value in data set [2] is given as -21.4 ± 6.1 ΔmmHg; in data set [3] (setting [6]), -2.4 ± 1.3 ΔmmHg; in data set [3] (setting [7]) it was -11.0 ± 1.3 ΔmmHg; in data set [3] (setting [8]) it was -14.4 ± 2.3 ΔmmHg; in data set [3] (setting [9]) it was -16.0 ± 4.7 ΔmmHg. For the same molecule, the “Increase in blood flow through circumflex branch of left coronary (Δ% ± standard error)” value in data set [3] (setting [6]) is 1.8 ± 1.8 Δ%; in data set [3] (setting [7]), 34.4 ± 8.2 Δ%; in data set [3] (setting [8]), 33.0 ± 12.2 Δ%; in data set [3] (setting [9]), 34.8 ± 15.1 Δ%.

On to `CCOP(=O)(Cc1ccc(-c2nc3ccccc3s2)cc1)OCC` [1-(benzothiazol-2-yl)-4-diethoxyphosphinylmethylbenzene], for which the activation at 10 µg/heart in data set [1] was 83.8 ± 9%. Moreover, in data set [2], the “Change in heart rate (Δbeats/min. ± standard error)” value is listed as -11.2 ± 2.1 Δbeats/min, the “Increase in coronary senus outflow (Δ% ± standard error)” value is reported as 42.8 ± 6.2 Δ% and the “Mean change in blood pressure (ΔmmHg ± standard error)” value is given as -10.0 ± 3.6 ΔmmHg. Besides, in data set [4], the median lethal dose (LD50) at 72 h is 962 mg/kg. Besides, the Kb in data set [5] was 120 nM.

Turning to `CC(C)OP(=O)(Cc1ccc(-c2nc3ccccc3s2)nc1)OC(C)C` [2-(benzothiazol-2-yl)-5-di-iso-propyloxyphosphinylmethylpyridine], in data set [1], the activation at 10 µg/heart was found to be 79.9 ± 13.1%. In data set [4], this molecule displayed a median lethal dose (LD50) at 72 h of more than 2250 mg/kg. In addition, the Kb on taenia coli (test compound 1 × 10^-6 g/ml) was 2570 nM.

As for `CCCCOP(=O)(Cc1ccc(-c2nc3ccccc3s2)nc1)OCCCC` [2-(benzothiazol-2-yl)-5-di-n-butyloxyphosphinylmethylpyridine], the activation at 10 µg/heart in data set [1] was found to be 50.3 ± 10.8%. Also, the Kb at taenia coli (test compound 1 × 10^-6 g/ml) was 4070 nM.

Take `CCCCOP(=O)(Cc1ccc(-c2nc3ccccc3s2)cc1)OCCCC` [1-(benzothiazol-2-yl)-4-di-n-butyloxyphosphinylmethylbenzene]: the activation at 10 µg/heart in data set [1] was determined as 65.1 ± 22.8%. The same molecule registered a median lethal dose (LD50) at 72 h in data set [4] of more than 2250 mg/kg.

Consider `COP(=O)(Cc1ccc(-c2nc3ccccc3s2)cc1)OC` [1-(benzothiazol-2-yl)-4-dimethoxyphosphinylmethylbenzene], for which the activation at 10 µg/heart in data set [1] is 38.5 ± 13.6%. The molecule further displayed an LD50 at 72 h in data set [4] of 1070 mg/kg.

With `COP(=O)(Cc1ccc(-c2nc3ccccc3s2)nc1)OC` [2-(benzothiazol-2-yl)-5-dimethoxyphosphinylmethylpyridine], in data set [1], the activation at 10 µg/heart was found to be 28.6 ± 3.8%.

As for `CCCOP(=O)(Cc1ccc(-c2nc3ccccc3s2)cc1)OCCC` [1-(benzothiazol-2-yl)-4-di-n-propyloxyphosphinylmethylbenzene], the activation at 10 µg/heart in data set [1] was determined as 65.1 ± 12.2%. This molecule also gave a 50% lethal dose (LD50) at 72 h in data set [4] of more than 2250 mg/kg.

With `CCOP(=O)(Cc1ccc(-c2nc3ccccc3s2)nc1)OCC` [2-(benzothiazol-2-yl)-5-diethoxyphosphinylmethylpyridine], in data set [1], the activation at 10 µg/heart was found to be 98.6 ± 10.6%. Also, the “Change in heart rate (Δbeats/min. ± standard error)” value in data set [2] is -16.3 ± 3.2 Δbeats/min; in data set [3] (setting [6]) it was -5.6 ± 1.2 Δbeats/min; in data set [3] (setting [7]), -23.3 ± 3.8 Δbeats/min; in data set [3] (setting [8]), -26.9 ± 3.8 Δbeats/min; in data set [3] (setting [9]), -26.4 ± 3.8 Δbeats/min. The “Increase in coronary senus outflow (Δ% ± standard error)” value in data set [2] is recorded as 74.4 ± 7.3 Δ%. For the same molecule, the “Mean change in blood pressure (ΔmmHg ± standard error)” value is reported as -14.5 ± 5.4 ΔmmHg in data set [2]; -12.9 ± 3.4 ΔmmHg in data set [3] (setting [6]); -12.4 ± 2.3 ΔmmHg in data set [3] (setting [7]); -11.0 ± 3.5 ΔmmHg in data set [3] (setting [8]); -11.2 ± 3.9 ΔmmHg in data set [3] (setting [9]). Besides, the “Increase in blood flow through circumflex branch of left coronary (Δ% ± standard error)” value in data set [3] (setting [6]) is 14.3 ± 7.4 Δ%; in data set [3] (setting [7]) it was 37.7 ± 9.6 Δ%; in data set [3] (setting [8]) it was 54.4 ± 11.3 Δ%; in data set [3] (setting [9]), 50.7 ± 12.7 Δ%. In addition, in data set [4], the LD50 at 72 h came out at 1060 mg/kg. Further, in data set [5], the Kb was 37.2 nM.

In the case of `CCCOP(=O)(Cc1ccc(-c2nc3ccccc3s2)nc1)OCCC` [2-(benzothiazol-2-yl)-5-di-n-propyloxyphosphinylmethylpyridine], the activation at 10 µg/heart in data set [1] came to 66 ± 21.6%. The molecule also showed an LD50 at 72 h in data set [4] of 713 mg/kg. Moreover, the Kb on taenia coli (test compound 1 × 10^-6 g/ml) was 1120 nM.

For `CC(C)OP(=O)(Cc1ccc(-c2nc3ccccc3s2)cc1)OC(C)C` [1-(benzothiazol-2-yl)-4-di-iso-propyloxyphosphinylmethylbenzene], the activation at 10 µg/heart in data set [1] came out at 90.7 ± 31.7%. In addition, in data set [4], the LD50 at 72 h was determined as 1660 mg/kg. Further, the Kb on taenia coli (test compound 3 × 10^-6 g/ml) is 776 nM.
